Results reported in PMC7933930, “Development of a small molecule that corrects misfolding and increases secretion of Z α1‐antitrypsin” (EMBO Molecular Medicine, 2021).
Blank lines part the entries; values can stand above or below the compound they belong to.

How the values were obtained:
Z α1‐antitrypsin = Z α1‐antitrypsin (Homo sapiens, UniProt P01009, E366K); assay: TR‐FRET immunoassay (2C1 antibody) of Z α1‐antitrypsin polymerisation, 37°C, 72 h; format: biochemical; parameters: purified from the plasma of Z α1‐antitrypsin homozygotes; from tissue; host or cells: human plasma of Z α1-antitrypsin homozygotes; conditions: 5 nM Z α1‐antitrypsin, 37°C, 72 h; read-out: pIC50, blocking polymerisation in the TR‐FRET immunoassay (converted)
Excerpt: Z α1‐antitrypsin is a conformationally dynamic molecule (Lomas et al, 1992; Knaupp et al, 2010) that represents a non‐classical target for drug discovery. A cell‐free assay approach to hit finding was undertaken so as not to miss compounds that bind α1‐antitrypsin and block polymerisation but lack the molecular properties to cross cell membranes. This comprised the following: (i) an encoded library technology (ELT) screen (Goodnow et al, 2017) of a library with a nominal diversity of 2 × 10^12 unique components to identify binders to Z α1‐antitrypsin and (ii) a high‐throughput screen (HTS) of the GSK compound collection (~ 1.7 million compounds) for small molecules that could block polymerisation of Z α1‐antitrypsin. […] In the HTS assay, polymerisation of purified Z α1‐antitrypsin was induced by incubation at 37°C for 72 h in the presence of test compounds, with end‐point quantification of polymers performed using the polymer‐specific monoclonal antibody, 2C1 (Miranda et al, 2010) in a TR‐FRET‐based immunoassay. […]
An antibody‐based time‐resolved fluorescence resonance energy transfer (TR‐FRET) assay was developed to monitor the polymerisation of 5 nM Z α1‐antitrypsin following incubation with varying concentrations of compounds at 37°C for 72 h. This assay used the 2C1 monoclonal antibody (1.25 nM) that is specific to pathological polymers of α1‐antitrypsin (Miranda et al, 2010), a polyclonal antibody (1/320 dilution) that binds to all forms of α1‐antitrypsin (Abcam product 9373), an anti‐mouse IgG (1.5 nM) labelled with fluorescence donor Eu‐W1024 (Perkin Elmer product AD0076) and an anti‐rabbit IgG (14.3 nM labelled with acceptor [APC]). […] The TR‐FRET signal was read on an Envision plate reader (PerkinElmer), by excitation of Europium at 337 nm and detection of emission at 665 and 620 nm.

[1] = tested on: Z α1‐antitrypsin polymers; parameters: method as in Hidvegi et al, 2010; conditions: Z α1‐antitrypsin transgenic mice, 2 weeks of dosing; ref Hidvegi et al, 2010; cited from earlier work
[2] = molecular target: bovine α‐chymotrypsin (bovine)

Z α1‐antitrypsin, sequence (P01009 25-418 E366K): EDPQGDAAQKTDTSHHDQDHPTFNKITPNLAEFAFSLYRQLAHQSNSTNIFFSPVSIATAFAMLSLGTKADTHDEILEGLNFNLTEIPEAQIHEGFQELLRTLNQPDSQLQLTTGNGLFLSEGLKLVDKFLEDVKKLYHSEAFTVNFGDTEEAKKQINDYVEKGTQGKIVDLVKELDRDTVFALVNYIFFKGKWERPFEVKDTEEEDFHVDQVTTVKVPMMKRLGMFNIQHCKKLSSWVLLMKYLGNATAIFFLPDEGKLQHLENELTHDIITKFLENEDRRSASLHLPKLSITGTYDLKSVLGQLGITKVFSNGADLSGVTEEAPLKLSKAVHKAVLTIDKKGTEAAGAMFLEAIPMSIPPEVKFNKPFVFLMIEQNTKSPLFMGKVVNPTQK
wild‐type M α1‐antitrypsin, purified from plasma, sequence (P01009 25-418): as the sequence (P01009 25-418 E366K) above, with K342E counted along it

IC50 (Z α1‐antitrypsin): 316 nM
Compound: CCCC(NC(=O)c1ccc2cc[nH]c2c1)C(O)c1ccccc1 (stereo not drawn) [GSK425]

Compound: NC(=O)N1c2ccccc2C=Cc2ccccc21 [carbamazepine]
effect on liver polymer [1]: profound effects on liver polymer

protease inhibitory activity (stoichiometry of inhibition, residual chymotrypsin activity) after pre‐incubation with 50 µM GSK716 [2]: > 98%
Compound: wild‐type M α1‐antitrypsin, purified from plasma (from UniProt P01009 25-418) (natural protein)
